Results published in PubChem BioAssay (NCI).
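48-hour exposure; five concentrations; linearly interpolated endpoints. GI50 is the concentration that inhibits growth by half. TGI marks complete inhibition of growth.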

What was measured:
Assay in all cases: DTP human tumour cell line panel, 48 h
[1] = tested on: K-562 leukemia
[2] = tested on: T-47D breast
[3] = tested on: NCI-H226 lung
[4] = tested on: HCC-2998 colon
[5] = tested on: SW-620 colon
[6] = tested on: RPMI-8226 leukemia
[7] = tested on: KM12 colon
[8] = tested on: M14 melanoma
[9] = tested on: CCRF-CEM leukemia
[10] = tested on: NCI-H23 lung
[11] = tested on: OVCAR-4 ovarian
[12] = tested on: RXF 393 renal
[13] = tested on: SF-295 CNS
[14] = tested on: SK-OV-3 ovarian
[15] = tested on: OVCAR-8 ovarian
[16] = tested on: OVCAR-5 ovarian
[17] = tested on: SF-539 CNS
[18] = tested on: EKVX NSCLC
[19] = tested on: UO-31 renal
[20] = tested on: MOLT-4 leukemia
[21] = tested on: NCI-H522 lung
[22] = tested on: NCI-H460 lung
[23] = tested on: SK-MEL-28 melanoma
[24] = tested on: MDA-MB-231 breast
[25] = tested on: IGROV1 ovarian
[26] = tested on: UACC-62 melanoma
[27] = tested on: SK-MEL-2 melanoma
[28] = tested on: HCT-15 colon
[29] = tested on: PC-3 prostate
[30] = tested on: LOX IMVI melanoma
[31] = tested on: ACHN renal
[32] = tested on: MALME-3M melanoma
[33] = tested on: MDA-MB-435
[34] = tested on: HOP-62 NSCLC
[35] = tested on: UACC-257 melanoma
[36] = tested on: U251 CNS
[37] = tested on: SR leukemia
[38] = tested on: HS 578T breast
[39] = tested on: A498 renal
[40] = tested on: OVCAR-3 ovarian
[41] = tested on: HL-60(TB) leukemia
[42] = tested on: HT29 colon
[43] = tested on: MCF7 breast
[44] = tested on: DU-145 prostate
[45] = tested on: HOP-92 NSCLC
[46] = tested on: A549 NSCLC
[47] = tested on: TK-10 renal
[48] = tested on: SNB-75 CNS
[49] = tested on: BT-549 breast
[50] = tested on: HCT-116 colon
[51] = tested on: SK-MEL-5 melanoma
[52] = tested on: 786-0 renal
[53] = tested on: COLO 205 colon
[54] = tested on: SN12C renal
[55] = tested on: SNB-19 CNS
[56] = tested on: SF-268 CNS
[57] = tested on: CAKI-1 renal
[58] = tested on: NCI/ADR-RES ovarian

Structure (SMILES): CC(=O)c1cc2c(N)c(C(=O)Nc3cccc4ccccc34)sc2nc1C
- GI50 [1]: 1.23 µM
- TGI [1]: > 50 µM
- GI50 [2]: 1.6 µM
- TGI [2]: > 50 µM
- GI50 [3]: 21.6 µM
- TGI [3]: > 50 µM
- GI50 [4]: 2.29 µM
- TGI [4]: > 50 µM
- GI50 [5]: 1.55 µM
- TGI [5]: > 50 µM
- GI50 [6]: 1.76 µM
- TGI [6]: > 50 µM
- GI50 [7]: 1.89 µM
- TGI [7]: > 50 µM
- GI50 [8]: 0.745 µM
- TGI [8]: 3.21 µM
- GI50 [9]: 2.02 µM
- TGI [9]: > 50 µM
- GI50 [10]: 2.14 µM
- TGI [10]: > 50 µM
- GI50 [11]: 6.06 µM
- TGI [11]: > 50 µM
- GI50 [12]: 0.891 µM
- TGI [12]: 3.46 µM
- GI50 [13]: 0.922 µM
- TGI [13]: 3.59 µM
- GI50 [14]: 0.512 µM
- TGI [14]: > 50 µM
- GI50 [15]: 2.14 µM
- TGI [15]: > 50 µM
- GI50 [16]: 2.6 µM
- TGI [16]: > 50 µM
- GI50 [17]: 1.16 µM
- TGI [17]: 3.99 µM
- GI50 [18]: 2.9 µM
- TGI [18]: > 50 µM
- GI50 [19]: 4.27 µM
- TGI [19]: > 50 µM
- GI50 [20]: 2.19 µM
- TGI [20]: > 50 µM
- GI50 [21]: 1.2 µM
- TGI [21]: > 50 µM
- GI50 [22]: 1.61 µM
- TGI [22]: > 50 µM
- GI50 [23]: 4.07 µM
- TGI [23]: > 50 µM
- GI50 [24]: 3.41 µM
- TGI [24]: > 50 µM
- GI50 [25]: 2.92 µM
- TGI [25]: > 50 µM
- GI50 [26]: 1.12 µM
- TGI [26]: > 50 µM
- GI50 [27]: 4.22 µM
- TGI [27]: > 50 µM
- GI50 [28]: 1.71 µM
- TGI [28]: > 50 µM
- GI50 [29]: 1.75 µM
- TGI [29]: > 50 µM
- GI50 [30]: 2.58 µM
- TGI [30]: > 50 µM
- GI50 [31]: 3.61 µM
- TGI [31]: > 50 µM
- GI50 [32]: 6.92 µM
- TGI [32]: > 50 µM
- GI50 [33]: 0.178 µM
- TGI [33]: 1.08 µM
- GI50 [34]: 1.67 µM
- TGI [34]: 27.4 µM
- GI50 [35]: 18 µM
- TGI [35]: > 50 µM
- GI50 [36]: 1.92 µM
- TGI [36]: > 50 µM
- GI50 [37]: 1.21 µM
- TGI [37]: > 50 µM
- GI50 [38]: 1.82 µM
- TGI [38]: > 50 µM
- GI50 [39]: 0.34 µM
- TGI [39]: > 50 µM
- GI50 [40]: 1.67 µM
- TGI [40]: 11.4 µM
- GI50 [41]: 1.36 µM
- TGI [41]: 4.35 µM
- GI50 [42]: 1.74 µM
- TGI [42]: > 50 µM
- GI50 [43]: 1.42 µM
- TGI [43]: > 50 µM
- GI50 [44]: 1.71 µM
- TGI [44]: 36.1 µM
- GI50 [45]: 6.78 µM
- TGI [45]: > 50 µM
- GI50 [46]: 0.977 µM
- TGI [46]: > 50 µM
- GI50 [47]: 3.77 µM
- TGI [47]: > 50 µM
- GI50 [48]: 1.98 µM
- TGI [48]: 35.5 µM
- GI50 [49]: 4.03 µM
- TGI [49]: > 50 µM
- GI50 [50]: 2.23 µM
- TGI [50]: > 50 µM
- GI50 [51]: 1.09 µM
- TGI [51]: > 50 µM
- GI50 [52]: 1.87 µM
- TGI [52]: > 50 µM
- GI50 [53]: 1.12 µM
- TGI [53]: 3.2 µM
- GI50 [54]: 3.44 µM
- TGI [54]: > 50 µM
- GI50 [55]: 1.78 µM
- TGI [55]: > 50 µM
- GI50 [56]: 4.34 µM
- TGI [56]: > 50 µM

Structure (SMILES): Nc1ncn([C@H]2CC(O)[C@@H](CO)S2)c(=O)n1 (some centres undefined)
- GI50 [1]: 2.2 µM
- TGI [1]: > 100 µM
- GI50 [2]: > 100 µM
- TGI [2]: > 100 µM
- GI50 [3]: 20.3 µM
- TGI [3]: > 100 µM
- GI50 [4]: 2.44 µM
- TGI [4]: > 100 µM
- GI50 [5]: 1.48 µM
- TGI [5]: > 100 µM
- GI50 [6]: 6.22 µM
- TGI [6]: > 100 µM
- GI50 [7]: 3.27 µM
- TGI [7]: > 100 µM
- GI50 [8]: 2.62 µM
- TGI [8]: > 100 µM
- GI50 [9]: 2.45 µM
- TGI [9]: > 100 µM
- GI50 [10]: 5.34 µM
- TGI [10]: > 100 µM
- GI50 [11]: > 100 µM
- TGI [11]: > 100 µM
- GI50 [12]: 11.1 µM
- TGI [12]: > 100 µM
- GI50 [13]: 35.5 µM
- TGI [13]: > 100 µM
- GI50 [14]: 28.9 µM
- TGI [14]: > 100 µM
- GI50 [15]: 0.42 µM
- TGI [15]: > 100 µM
- GI50 [16]: 23.3 µM
- TGI [16]: > 100 µM
- GI50 [17]: 16.7 µM
- TGI [17]: > 100 µM
- GI50 [18]: 32.8 µM
- TGI [18]: > 100 µM
- GI50 [19]: 2.93 µM
- TGI [19]: > 100 µM
- GI50 [20]: 1.08 µM
- TGI [20]: > 100 µM
- GI50 [21]: 0.154 µM
- TGI [21]: > 100 µM
- GI50 [22]: 0.685 µM
- TGI [22]: > 100 µM
- GI50 [23]: 2.05 µM
- TGI [23]: > 100 µM
- GI50 [24]: 3.57 µM
- TGI [24]: > 100 µM
- GI50 [25]: 10.2 µM
- TGI [25]: > 100 µM
- GI50 [26]: 8.51 µM
- TGI [26]: > 100 µM
- GI50 [27]: 7.05 µM
- TGI [27]: > 100 µM
- GI50 [28]: 1.71 µM
- TGI [28]: > 100 µM
- GI50 [29]: 8.93 µM
- TGI [29]: > 100 µM
- GI50 [30]: 4.48 µM
- TGI [30]: > 100 µM
- GI50 [31]: 0.266 µM
- TGI [31]: > 100 µM
- GI50 [32]: 88.6 µM
- TGI [32]: > 100 µM
- GI50 [33]: 0.783 µM
- TGI [33]: > 100 µM
- GI50 [34]: 4.63 µM
- TGI [34]: > 100 µM
- GI50 [36]: 12.7 µM
- TGI [36]: > 100 µM
- GI50 [38]: 39.3 µM
- TGI [38]: > 100 µM
- GI50 [39]: 1.99 µM
- TGI [39]: 58.1 µM
- GI50 [40]: 6.08 µM
- TGI [40]: > 100 µM
- GI50 [41]: 5.27 µM
- TGI [41]: > 100 µM
- GI50 [42]: 1.25 µM
- TGI [42]: > 100 µM
- GI50 [43]: 0.382 µM
- TGI [43]: > 100 µM
- GI50 [44]: 2.27 µM
- TGI [44]: > 100 µM
- GI50 [57]: 1.99 µM
- TGI [57]: > 100 µM
- GI50 [45]: > 100 µM
- TGI [45]: > 100 µM
- GI50 [58]: 0.559 µM
- TGI [58]: > 100 µM
- GI50 [46]: 2.79 µM
- TGI [46]: > 100 µM
- GI50 [47]: 36.3 µM
- TGI [47]: > 100 µM
- GI50 [48]: 53.9 µM
- TGI [48]: > 100 µM
- GI50 [49]: 8.27 µM
- TGI [49]: > 100 µM
- GI50 [50]: 0.371 µM
- TGI [50]: > 100 µM
- GI50 [51]: 1.17 µM
- TGI [51]: > 100 µM
- GI50 [52]: 13.9 µM
- TGI [52]: > 100 µM
- GI50 [53]: 0.839 µM
- TGI [53]: > 100 µM
- GI50 [54]: 3.6 µM
- TGI [54]: > 100 µM
- GI50 [55]: 16.2 µM
- TGI [55]: > 100 µM
- GI50 [56]: 16.4 µM
- TGI [56]: > 100 µM
